Data taken from patent publication US20070149505A1, “Method of Inhibiting Adhesion Formation” (SmithKline Beecham Corporation, priority 2001, published 2007).
Values joined by “and” are separate entries in the source; they are usually repeats but may differ in a detail not shown here. Equal values may be shown once.

Test system: uterine horn adhesions
Experiment: rabbit uterine horn model of adhesion formation, oral + local (gel) COMPOUND 1 study
Type: in vivo, New Zealand White rabbits
Design: key to tenacity of the adhesions score (in parentheses), Right Horn, Bowel / tenacity of the adhesions score (in parentheses), Right Horn, Itself / tenacity of the adhesions score (in parentheses), Left Horn, Itself / tenacity of the adhesions score (in parentheses), Right Horn, Left / tenacity of the adhesions score (in parentheses), Left Horn, Bowel / tenacity of the adhesions score (in parentheses), Left Horn, Right / tenacity of the adhesions score (in parentheses), Right Horn, Bladder / tenacity of the adhesions score (in parentheses), Left Horn, Bladder: 0=No Adhesions; 1=mild, easily dissectable adhesions; 2=moderate adhesions; non-dissectable, does not tear the organ; 3=dense adhesions; non-dissectable, tears organ when removed; key to Overall score: overall adhesion score; 1 = mild, 1.5+ slightly tougher/more extensive
Conditions: for Overall, (group summary): group value ± spread, overall scores analyzed by rank order analysis
Description: The compounds of the instant invention are tested in known models of adhesion formation. These test systems include a rabbit sidewall model of adhesion formation as described in Rogers, et al., J. Invest. Surg., 9:388-391 (1996) and Rodgers, et al., […], 69(3):403-408 (1998); a rat model for adhesion formation as described in Harris, et al., Surgery, 117:663-669 (1995); and a rabbit animal model used to examine laparoscopic adhesion prevention. The rabbit uterine horn model may also be used to test the use of the instant vitronectin inhibiting compounds as inhibitors of adhesion formation. The experimental details and results using this model are detailed below.
Animals: New Zealand White rabbits, 2.4-2.7 kg, were purchased and quarantined for at least 2 days prior to use. The rabbits were randomized into appropriate control and treatment groups (see experimental designs below). The rabbits were housed on a 12:12 light:dark cycle with food and water available ad libitum. Each treatment group in all studies contained 8-10 animals.
Adhesion Model: The animals that received COMPOUND 1 or vehicle according to the experimental design (below). The rabbits that received placebo at surgery received two doses of vehicle orally. Rabbits were anesthetized with a mixture of 55 mg/kg ketamine hydrochloride and 5 mg/kg Rompum intramuscularly. Following preparation for sterile surgery, a midline laparotomy was performed. The uterine horns were exteriorized and traumatized by abrasion of the serosal surface with gauze until punctate bleeding developed. Ischemia of both uterine horns was induced by removal of the collateral blood supply. The remaining blood supply to the uterine horns was the ascending branches of the utero-vaginal arterial supply of the myometrium. The midline muscle and skin incision were closed.
After 7 or 14 days, the rabbits were terminated and adhesions were scored on a site and rabbit basis. Specifically, the percentage of the area of the horns adherent to various organs was determined. In addition, the tenacity of the adhesions was scored using the following system:
1=mild, easily dissectable adhesions
3=dense adhesions; non-dissectable, tears organ when removed
An overall score which took into account all of the above data was given to each rabbit. The following scoring system was used:
0.5+ Light, filmy pelvic adhesions involving only one organ, typically only 1 or 2 small adhesions
1.0+ Light, filmy adhesions, not extensive although slightly more extensive than 0.5
1.5+ Adhesions slightly tougher and more extensive than a 1 rating
2.0+ Tougher adhesions, a little more extensive, uterine horns usually have adhesions to both bowel and bladder
2.5+ Same as 2, except the adhesions are usually not filmy at any site and more extensive
3.0+ Tougher adhesions than 2, more extensive, both horns are attached to the bowel and bladder, some movement of the uterus possible
3.5+ Same as 3, but adhesions slightly more extensive and tougher
4.0+ Severe adhesions, both horns attached to the bowel and bladder, unable to move the uterus without tearing the adhesions
The rabbits were scored by two independent observers that were blinded to the prior treatment of the animal. If there was disagreement as to the score to be assigned to an individual animal, the higher score was given.
Statistical Analysis: The tenacity and overall scores were analyzed by rank order analysis and analysis of variance on the ranks. The percentage area of the horns involved to the various organs were compared by Student's t test.
[…] received two loading doses of 60 mg/kg COMPOUND 1 orally prior to surgery. At the end of the procedure, the animals received either nothing (surgical control), or 12 ml of placebo (10% CMC) or one of two doses (1 mg/ml or 0.1 mg/ml) of COMPOUND 1 at the site of surgical injury.
Oral+local study: Two loading doses of COMPOUND 1 (60 mg/kg, po) were administered orally prior to surgery. […]

[1] = 0.1 mg/ml COMPOUND 1, 2 Week Necropsy Time (Table 4), group mean ± spread
[2] = 0.1 mg/ml COMPOUND 1, 2 Week Necropsy Time (Table 4), individual rabbit
[3] = 0.1 mg/ml COMPOUND 1, 2 Week Necropsy Time (Table 4), individual rabbit, dash = site adhesion free
[4] = 0.1 mg/ml COMPOUND 1, 2 Week Necropsy Time (Table 8), group mean ± spread
[5] = 0.1 mg/ml COMPOUND 1, 2 Week Necropsy Time (Table 8), individual rabbit
[6] = 0.1 mg/ml COMPOUND 1, 2 Week Necropsy Time (Table 8), individual rabbit, dash = site adhesion free
[7] = 0.1 mg/ml COMPOUND 1, listed after Control/Placebo 1 Week

O=C(O)C[C@@H]1Cc2ccc(OCCCNc3ccccn3)cc2CN(CC(F)(F)F)C1=O [COMPOUND 1, (S)-3-oxo-8-[3-(pyridin-2-ylamino)-1-propyloxy]-2-(2,2,2-trifluoroethyl)-2,3,4,5-tetrahydro-1H-2-benzazepine-4-acetic acid]
% Horn Involved, Left Horn, Bladder [1]: 7.0 ± 5.0%
% Horn Involved, Left Horn, Bowel [1]: 10.0 ± 4.2%
% Horn Involved, Left Horn, Itself [1]: 22.0 ± 3.6%
% Horn Involved, Left Horn, Right [1]: 21.0 ± 4.8%
% Horn Involved, Right Horn, Bladder [1]: 9.0 ± 4.8%
% Horn Involved, Right Horn, Bowel [1]: 10.0 ± 4.2%
% Horn Involved, Right Horn, Itself [1]: 16.0 ± 5.0%
% Horn Involved, Right Horn, Left [1]: 21.0 ± 4.8%
Overall, (group summary) (0.1 mg/ml COMPOUND 1, 2 Week Necropsy Time (Table 4)): 30.2 ± 6.2
Overall score [2]: 1.5 (3×) and 2.0 (2×) and 1.0 (2×) and 0.5 and 2.5 (2×)
tenacity of the adhesions score (in parentheses), Left Horn, Bladder [2]: 1
tenacity of the adhesions score (in parentheses), Left Horn, Bowel [2]: 1
tenacity of the adhesions score (in parentheses), Left Horn, Itself [2]: 1 (7×) and 2 (2×)
tenacity of the adhesions score (in parentheses), Left Horn, Right [2]: 1 (6×) and 2 (2×)
tenacity of the adhesions score (in parentheses), Right Horn, Bladder [2]: 1
tenacity of the adhesions score (in parentheses), Right Horn, Bowel [2]: 1
tenacity of the adhesions score (in parentheses), Right Horn, Itself [2]: 1 (4×) and 2 (2×)
tenacity of the adhesions score (in parentheses), Right Horn, Left [2]: 1 (6×) and 2 (2×)
% Horn Involved, Left Horn, Bladder [3]: 10% (2×) and 50%
% Horn Involved, Left Horn, Bowel [3]: 10% (2×) and 20% (2×) and 40%
% Horn Involved, Left Horn, Itself [3]: 40% and 30% (3×) and 20% (4×) and 10%
% Horn Involved, Left Horn, Right [3]: 30% (3×) and 40% (2×) and 20% and 10% (2×)
% Horn Involved, Right Horn, Bladder [3]: 10% (4×) and 50%
% Horn Involved, Right Horn, Bowel [3]: 10% (2×) and 20% (2×) and 40%
% Horn Involved, Right Horn, Itself [3]: 40% and 30% (3×) and 10% and 20%
% Horn Involved, Right Horn, Left [3]: 30% (3×) and 40% (2×) and 20% and 10% (2×)
% Horn Involved, Left Horn, Bladder [4]: 7.0 ± 3.4%
% Horn Involved, Left Horn, Bowel [4]: 15.0 ± 5.0%
% Horn Involved, Left Horn, Itself [4]: 23.0 ± 5.6%
% Horn Involved, Left Horn, Right [4]: 15.0 ± 4.8%
% Horn Involved, Right Horn, Bladder [4]: 7.0 ± 3.4%
% Horn Involved, Right Horn, Bowel [4]: 13.0 ± 4.7%
% Horn Involved, Right Horn, Itself [4]: 11.0 ± 3.5%
% Horn Involved, Right Horn, Left [4]: 15.0 ± 4.8%
Overall, (group summary) (0.1 mg/ml COMPOUND 1, 2 Week Necropsy Time (Table 8)): 22.0 ± 4.8
Overall score [5]: 2.0 (2×) and 1.5 (4×) and 1.0 (2×) and 0.5 (2×)
tenacity of the adhesions score (in parentheses), Left Horn, Bladder [5]: 1
tenacity of the adhesions score (in parentheses), Left Horn, Bowel [5]: 1
tenacity of the adhesions score (in parentheses), Left Horn, Itself [5]: 1
tenacity of the adhesions score (in parentheses), Left Horn, Right [5]: 1
tenacity of the adhesions score (in parentheses), Right Horn, Bladder [5]: 1
tenacity of the adhesions score (in parentheses), Right Horn, Bowel [5]: 1
tenacity of the adhesions score (in parentheses), Right Horn, Itself [5]: 1
tenacity of the adhesions score (in parentheses), Right Horn, Left [5]: 1
% Horn Involved, Left Horn, Bladder [6]: 30% and 10% (2×) and 20%
% Horn Involved, Left Horn, Bowel [6]: 40% and 30% (3×) and 10% (2×)
% Horn Involved, Left Horn, Itself [6]: 30% (4×) and 50% and 20% and 40%
% Horn Involved, Left Horn, Right [6]: 10% and 40% and 30% (2×) and 20% (2×)
% Horn Involved, Right Horn, Bladder [6]: 30% and 10% (2×) and 20%
% Horn Involved, Right Horn, Bowel [6]: 40% and 30% (2×) and 10% (3×)
% Horn Involved, Right Horn, Itself [6]: 30% (2×) and 10% (5×)
% Horn Involved, Right Horn, Left [6]: 10% and 40% and 30% (2×) and 20% (2×)
# Sites Adhesion Free [7]: 34
% Sites Adhesion Free [7]: 42.5%
# Sites Adhesion Free (0.1 mg/ml COMPOUND 1, listed after Control/Placebo 2 Weeks): 31
